From PubChem BioAssay (NCI)
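Cells were grown in 96-well plates and exposed to each compound for 48 hours at five concentrations; endpoints were interpolated linearly between bracketing concentrations, or set to the highest concentration if not reached. Here, GI50 denotes the concentration required for 50% inhibition of growth. The concentration for full growth arrest is given as TGI.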

Legend:
Test in all cases: NCI anticancer screen, dose series, 48 h
[1] = test system: OVCAR-5 ovarian
[2] = test system: NCI-H226 lung
[3] = test system: ACHN renal
[4] = test system: MALME-3M melanoma
[5] = test system: SF-268 CNS
[6] = test system: M14 melanoma
[7] = test system: K-562 leukemia
[8] = test system: OVCAR-8 ovarian
[9] = test system: SK-MEL-2 melanoma
[10] = test system: OVCAR-4 ovarian

SMILES	GI50 [1]	TGI [1]	GI50 [2]	TGI [2]	GI50 [3]	TGI [3]	GI50 [4]	TGI [4]	GI50 [5]	TGI [5]	GI50 [6]	TGI [6]	GI50 [7]	TGI [7]	GI50 [8]	TGI [8]	GI50 [9]	TGI [9]	GI50 [10]	TGI [10]
CN1C(=O)N[C@H]2[C@@H]3NC(=O)c4ccc(Br)n4[C@@H]3C[C@]21O	1.03 µM	6.3 µM	212 nM	2.64 µM	187 nM	2.93 µM	103 nM	0.731 µM	0.115 µM	2.63 µM	45.4 nM	0.236 µM	82.7 nM	1.43 µM	259 nM	1.93 µM	56.8 nM	0.194 µM	93 nM	1.56 µM
CC(C)(C)CC(C)(C)NCc1cc(C(C)(C)C)cc(CNC(C)(C)CC(C)(C)C)c1O	3.02 µM	10 µM	2250 nM	8.89 µM	2810 nM	10.8 µM	1850 nM	4 µM	5.4 µM	18.7 µM	1950 nM	4.16 µM	2200 nM	9.45 µM	3250 nM	12.4 µM	2840 nM	6.6 µM	2620 nM	10.9 µM
COc1cc(-c2nc(-c3nc4ccccc4[nH]3)cc3c2[nH]c2ccccc23)cc(OC)c1OC	> 100 µM	> 100 µM	7190 nM	> 100 µM	4860 nM	> 100 µM	4310 nM	> 100 µM	4.81 µM	> 100 µM	4180 nM	> 100 µM	4330 nM	> 100 µM	2790 nM	> 100 µM	3580 nM	> 100 µM	47400 nM	> 100 µM
O=S1Nc2c(Cl)cc(Cl)c3c(Cl)cc(Cl)c(c23)N1	–	> 100 µM	–	69.5 µM	–	73.8 µM	–	> 100 µM	–	> 100 µM	–	> 100 µM	–	> 100 µM	–	> 100 µM	–	> 100 µM	–	91.2 µM
C=C1CCC2C(C)(COC(=O)CC)C(OC(=O)CC)CCC2(C)C1C/C=C1/C(=O)OCC1OC(=O)CC (stereo not drawn)	2.45 µM	5.35 µM	2130 nM	4.1 µM	1740 nM	3.24 µM	2080 nM	3.99 µM	1.91 µM	3.39 µM	1940 nM	4.66 µM	1790 nM	10.4 µM	634 nM	2.13 µM	1440 nM	3.02 µM	2330 nM	6.9 µM
COC(=O)c1cc(O)c2c(c1C(=O)OC)C[C@H]1[C@@H]3CC=C4C[C@@H](O)CC[C@]4(C)[C@H]3CC[C@]21C	4.82 µM	23.9 µM	3780 nM	20 µM	3640 nM	17 µM	2710 nM	8.15 µM	3.13 µM	13 µM	3470 nM	18.7 µM	2410 nM	7.77 µM	3330 nM	16.9 µM	2790 nM	5.6 µM	3590 nM	15.8 µM
CC1(CCC(=O)OC2CCCCC2)OCCO1	–	> 100 µM	–	> 100 µM	–	> 100 µM	–	> 100 µM	–	> 100 µM	–	> 100 µM	–	> 100 µM	–	> 100 µM	–	> 100 µM	–	> 100 µM
FC(F)(F)C1(Br)C(c2ccccc2)=C1c1ccccc1	–	52 µM	–	46.3 µM	–	40.3 µM	–	30.5 µM	–	43.9 µM	–	35 µM	–	28.2 µM	–	30.5 µM	–	30 µM	–	54 µM
COc1cc(Nc2nc3ccccc3cc2C(=O)Nc2ccc(F)c(F)c2)cc(OC)c1OC	4.29 µM	> 100 µM	2550 nM	7.93 µM	2510 nM	7.59 µM	2680 nM	6.41 µM	3.96 µM	> 100 µM	2740 nM	–	3310 nM	> 100 µM	2770 nM	7.85 µM	2100 nM	5.98 µM	2800 nM	8.56 µM
CCc1cccc(CC)c1NC(=O)C1=C(C)NC(C)=C(C(=O)Nc2c(CC)cccc2CC)C1c1ccc([N+](=O)[O-])cc1	–	> 100 µM	–	> 100 µM	–	> 100 µM	–	46.8 µM	–	> 100 µM	–	42.5 µM	–	93.5 µM	–	64.3 µM	–	65.3 µM	–	33.8 µM
Cc1cc(N(CCC#N)S(C)(=O)=O)ccc1C=Nc1ccc(C(=O)NN2C(=O)/C(=C/c3ccc(N(CCC#N)CCC#N)cc3C)N=C2c2cc([N+](=O)[O-])ccc2Cl)cc1	–	> 100 µM	–	> 100 µM	–	> 100 µM	–	> 100 µM	–	> 100 µM	–	> 100 µM	–	> 100 µM	–	> 100 µM	–	> 100 µM	–	> 100 µM
OCC(O)c1nc2ccc3[nH]ncc3c2c2c1CCCC2 (stereo not drawn)	1.53 µM	> 50 µM	971 nM	2.83 µM	1130 nM	> 50 µM	1670 nM	4.82 µM	1.22 µM	4.64 µM	1170 nM	2.78 µM	1910 nM	> 50 µM	1450 nM	> 50 µM	1180 nM	2.99 µM	2490 nM	> 50 µM
Cc1nc(N2CCC3(CC2)CO[C@@H](C)[C@H]3N)c(CO)nc1Sc1ccnc(N)c1Cl	> 100 µM	> 100 µM	2140 nM	> 100 µM	4810 nM	> 100 µM	> 100000 nM	> 100 µM	12.8 µM	> 100 µM	> 100000 nM	> 100 µM	305 nM	> 100 µM	75600 nM	> 100 µM	> 100000 nM	> 100 µM	22400 nM	> 100 µM
CCOC(=N)CC(=O)c1ccccc1	–	> 100 µM	–	> 100 µM	–	> 100 µM	–	> 100 µM	–	> 100 µM	–	> 100 µM	–	> 100 µM	–	> 100 µM	–	> 100 µM	–	> 100 µM
CCCC(CCC)C(=O)OCC1(CO)C/C(=C\c2ccc(F)cc2)C(=O)O1 (stereo not drawn)	16.6 µM	31.4 µM	11700 nM	32.3 µM	9320 nM	23.4 µM	12100 nM	27.2 µM	13.2 µM	26.7 µM	8450 nM	24.8 µM	374 nM	18 µM	17900 nM	37 µM	17200 nM	34.1 µM	13900 nM	28.4 µM
CC/C(CC(=O)CCC(=O)Nc1ccccc1[N+](=O)[O-])=N/NC(=O)C[n+]1ccccc1	–	> 100 µM	–	> 100 µM	–	> 100 µM	–	> 100 µM	–	> 100 µM	–	> 100 µM	–	> 100 µM	–	> 100 µM	–	> 100 µM	–	> 100 µM

SMILES	GI50 [1]	TGI [1]	GI50 [2]	TGI [2]	GI50 [3]	TGI [3]	GI50 [4]	TGI [4]	GI50 [5]	TGI [5]	GI50 [6]	TGI [6]	GI50 [7]	TGI [7]	GI50 [8]	TGI [8]	GI50 [9]	TGI [9]	GI50 [10]	TGI [10]
CN1C(=O)C(=O)c2cc3c(c4c2c1cc1ccccc14)OCO3	–	> 100 µM	–	73.3 µM	–	> 100 µM	–	> 100 µM	–	> 100 µM	–	> 100 µM	–	> 100 µM	–	> 100 µM	–	> 100 µM	–	> 100 µM
COC(=O)C(Cc1nc2ccccc2[nH]c1=O)C(=O)C(=O)Nc1ccc([N+](=O)[O-])cc1[N+](=O)[O-] (stereo not drawn)	–	51 µM	–	32.1 µM	–	33.3 µM	–	34.3 µM	–	47.7 µM	–	32.4 µM	–	> 100 µM	–	52.6 µM	–	69 µM	–	64.1 µM
O=C(/C=C/c1ccccc1)n1c(-c2ccc(Cl)cc2)nc2ccccc21	1.74 µM	4.21 µM	2170 nM	6 µM	1180 nM	10 µM	1630 nM	5.74 µM	2.1 µM	6.14 µM	1910 nM	5.05 µM	2090 nM	11.8 µM	752 nM	10.3 µM	2100 nM	4.35 µM	3010 nM	16.7 µM
O=C(O)C(Cl)(c1ccccc1)c1ccccc1	–	> 100 µM	–	> 100 µM	–	> 100 µM	–	> 100 µM	–	> 100 µM	–	> 100 µM	–	> 100 µM	–	> 100 µM	–	> 100 µM	–	> 100 µM
CC(=O)[CH-]C(=O)c1ccccc1.CC(=O)[CH-]C(=O)c1ccccc1.CCOCC[O-].CCOCC[O-].[Ti+4]	26.8 µM	60.7 µM	5550 nM	22.6 µM	31600 nM	> 100 µM	16900 nM	43.7 µM	13.8 µM	34.8 µM	16700 nM	37.1 µM	23000 nM	55.8 µM	19600 nM	41.7 µM	14200 nM	29.6 µM	31900 nM	> 100 µM
COc1ccc2c(c1)CC[C@H](O)/C2=C/c1cc(OC)c(OC)c(OC)c1	0.906 µM	> 100 µM	2950 nM	> 100 µM	227 nM	> 100 µM	771 nM	> 100 µM	0.198 µM	> 100 µM	101 nM	> 100 µM	49.2 nM	> 100 µM	360 nM	> 100 µM	17800 nM	> 100 µM	952 nM	> 100 µM
CC(C)(C)C(=O)OC12/C(=N/O)CCCCCC1c1ccccc12 (stereo not drawn)	–	28.7 µM	–	35.4 µM	–	31.8 µM	–	37.4 µM	–	32.4 µM	–	31.2 µM	–	55.4 µM	–	33.4 µM	–	37.3 µM	–	33 µM
Cc1cccc(C)c1NC(=O)Nc1ccc(S(N)(=O)=O)cc1	–	> 100 µM	–	> 100 µM	–	> 100 µM	–	> 100 µM	–	> 100 µM	–	> 100 µM	–	> 100 µM	–	> 100 µM	–	> 100 µM	–	> 100 µM
N#CC1=C(N)NC(N2CCOCC2)=NC12Nc1ccccc1N2	42.7 µM	> 100 µM	27300 nM	> 100 µM	33300 nM	> 100 µM	30500 nM	> 100 µM	21.6 µM	51.1 µM	> 100000 nM	> 100 µM	> 100000 nM	> 100 µM	37500 nM	> 100 µM	20100 nM	47.4 µM	> 100000 nM	> 100 µM
O=C(Nc1cccc(O)c1)C(=O)C(C(=O)c1ccc(Cl)c(Cl)c1)C1OC(=O)c2ccccc21 (stereo not drawn)	–	65.2 µM	–	21.9 µM	–	29.7 µM	–	33.8 µM	–	33.7 µM	–	37.1 µM	–	48.9 µM	–	37.8 µM	–	63.9 µM	–	36.7 µM
CCn1c(-c2cc3ccccc3cc2O)nn(C(=O)c2c(Cl)cccc2Cl)c1=S	> 50 µM	> 50 µM	14200 nM	40.2 µM	16200 nM	> 50 µM	30800 nM	> 50 µM	> 50 µM	> 50 µM	7110 nM	21.9 µM	14300 nM	> 50 µM	> 50000 nM	> 50 µM	9050 nM	21.1 µM	> 50000 nM	> 50 µM
O=C1C(Cl)C(c2ccccc2O)N1n1cnc2ccccc2c1=O (stereo not drawn)	–	> 100 µM	–	> 100 µM	–	> 100 µM	–	> 100 µM	–	> 100 µM	–	> 100 µM	–	> 100 µM	–	> 100 µM	–	> 100 µM	–	> 100 µM
Cn1c2ccc(Br)cc2c2c3c(c4c5ccccc5[nH]c4c21)C(=O)N(O)C3=O	1.33 µM	3.73 µM	1060 nM	2.92 µM	44.8 nM	0.244 µM	186 nM	0.386 µM	0.0763 µM	0.72 µM	87.7 nM	0.307 µM	168 nM	–	149 nM	0.683 µM	226 nM	0.469 µM	244 nM	0.705 µM
CC[N+]1(C)CCC(O)(c2ccc(OC)cc2)C(C(=O)c2ccc(OC)cc2)C1 (stereo not drawn)	–	35.3 µM	–	34.4 µM	–	27.2 µM	–	17.2 µM	–	56 µM	–	21.3 µM	–	> 22.4 µM	–	59.4 µM	–	34.3 µM	–	51.2 µM
CN/N=C(\C)C(CN(C)C)C(c1ccccc1)c1c(O)c2ccccc2oc1=O (stereo not drawn)	–	> 100 µM	–	> 100 µM	–	> 100 µM	–	> 100 µM	–	> 100 µM	–	> 100 µM	–	> 100 µM	–	> 100 µM	–	> 100 µM	–	> 100 µM
